For one assay, the system named is HFL1. Nature of the assay: Cell-based assay, anti-proliferative activity (Cell Counting Kit-8, 72 hours). To be noted: read-out: IC50 (μM) HFL1. The gist of the method:
(§1)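 IC50 values reflect cell growth measured by Cell Counting Kit-8 following 72 hours of inhibitor exposure across a twofold dilution range up to 100 micro-M.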
Background: Formazan colour is commonly taken as a measure of viable cells.

In the next assay the test system is HCT-116. Described as above. The settings on record: read-out: IC50 (μM) HCT-116. The method in brief: as §1
Another assay has as its system CCD-18Co. Described as above. To be noted: read-out: IC50 (μM) CCD-18Co. The gist of the method: as §1
A further assay deals with PC14. The assay is described as above. The settings on record: read-out: IC50 (μM) PC14. The method in brief:
as §1

For a further assay, the target named is SUV39H2 (Homo sapiens (Human), UniProt Q9H5I1). To be noted: read-out: IC50 (μM) Suv 39H2 assay.
In a further assay the test system is A549. Nature of the assay: Cell-based assay, anti-proliferative activity (Cell Counting Kit-8, 72 hours). To be noted: read-out: IC50 (μM) A549. The gist of the method:
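Cells were seeded in 96-well plates and exposed to candidate inhibitors. Cellular growth was then determined with the colorimetric kit, and IC50 values were calculated from the growth data.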

[1] abbreviates: Homo sapiens, HFL1 cells, Cell Counting Kit-8, 72 hours.
Where [2] appears, read: Homo sapiens, HCT-116 cells, Cell Counting Kit-8, 72 hours.
Setting [3] is: Homo sapiens, CCD-18Co cells, Cell Counting Kit-8, 72 hours.
Setting [4] is: Homo sapiens, PC-14, PC14 cells, Cell Counting Kit-8, 72 hours.
The mark [5] stands for this setting: Homo sapiens, A549 cells, Cell Counting Kit-8, 72 hours.

The results in this text go back to patent publication US10508109B2 (priority 2015, dated 2019).

Where a name gives a salt, the structure may show the parent alone. Read-outs that look alike come from different tables or passages of the source.

Sequence of SUV39H2 (Q9H5I1 whole entry): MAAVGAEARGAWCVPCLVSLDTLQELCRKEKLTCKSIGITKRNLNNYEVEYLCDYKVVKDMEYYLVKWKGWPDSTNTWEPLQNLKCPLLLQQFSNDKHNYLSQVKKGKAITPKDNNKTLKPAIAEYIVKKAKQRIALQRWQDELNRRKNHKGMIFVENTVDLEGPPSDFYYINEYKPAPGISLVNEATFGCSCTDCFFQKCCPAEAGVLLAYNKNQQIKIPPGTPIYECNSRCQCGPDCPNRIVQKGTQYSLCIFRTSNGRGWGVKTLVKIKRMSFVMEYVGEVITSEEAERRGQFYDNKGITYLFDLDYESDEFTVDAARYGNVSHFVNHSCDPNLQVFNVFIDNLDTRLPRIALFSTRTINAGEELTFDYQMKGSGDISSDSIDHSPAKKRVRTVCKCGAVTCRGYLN

Consider “1-(4-(2-(5-chloro-2-(3-(dimethylamino)propoxy)-4-methoxyphenyl)-imidazo[1,2-a]pyridin-7-yl)piperazin-1-yl)-2,2-dimethylpropan-1-one [Example 154]”, for which the IC50 (commonly the point on the concentration scale where inhibition reaches its midpoint) in the assay on HFL1 (HFL1 cells, Cell Counting Kit-8, 72 hours) came out at 4.3 µM; with HCT-116 (HCT-116 cells, Cell Counting Kit-8, 72 hours), 7.9 µM; in the assay on CCD-18Co (CCD-18Co cells, Cell Counting Kit-8, 72 hours), 8.7 µM; with PC14 (PC14 cells, Cell Counting Kit-8, 72 hours) it was 8 µM; at SUV39H2 (enzyme assay) it was 0.0135 µM; in the assay on A549 (A549 cells, Cell Counting Kit-8, 72 hours), 6.9 µM.
Consider “4-(2-(5-chloro-2,4-dimethoxyphenyl)imidazo[1,2-a]pyridin-7-yl)-N-(pyrrolidin-2-ylmethyl)benzamide [Example 249]”, for which the IC50 in the assay on HFL1 (HFL1 cells, 72 hours, Cell Counting Kit-8) was 5.4 µM; in the assay on HCT-116 (HCT-116 cells, 72 hours, Cell Counting Kit-8), 3.7 µM; in the assay with CCD-18Co (CCD-18Co cells, 72 hours, Cell Counting Kit-8) it was 5.2 µM; in the assay on PC14 (PC14 cells, 72 hours, Cell Counting Kit-8), 4.8 µM; at SUV39H2 (enzyme assay) it was 0.035 µM; in the assay with A549 (A549 cells, 72 hours, Cell Counting Kit-8), 5.4 µM.
As for `COc1cc(OC)c(-c2cn3ccc(N4CCCC4)nc3n2)cc1Br` [Example 3, 2-(5-bromo-2,4-dimethoxyphenyl)-7-(pyrrolidin-1-yl)imidazo[1,2-a]pyrimidine], the concentration for half-maximal inhibition (IC50) is 7.4 µM in the assay on HFL1 (setting [1]); 8.1 µM with HCT-116 (setting [2]); 6.8 µM in the assay with CCD-18Co (setting [3]); 7.1 µM with PC14 (setting [4]); 0.00858 µM on SUV39H2 (enzyme assay); 11 µM in the assay on A549 (setting [5]).
With `COc1cc(OC)c(-c2cn3ccc(N4CCCC4)cc3n2)cc1Cl` [Example 4, 2-(5-chloro-2,4-dimethoxyphenyl)-7-(pyrrolidin-1-yl)imidazo[1,2-a]pyridine hydrobromide], the IC50 with HFL1 (setting [1]) turned out to be 1.4 µM; with HCT-116 (setting [2]), 1.5 µM; in the assay on CCD-18Co (setting [3]) it was 1.1 µM; in the assay with PC14 (setting [4]) it was 1.4 µM; on SUV39H2 (enzyme assay), 0.0031 µM; in the assay with A549 (setting [5]), 2 µM.
As to `CNc1ccn2cc(-c3cc(Cl)c(OC)cc3OC)nc2c1` [Example 6, 2-(5-chloro-2,4-dimethoxyphenyl)-N-methylimidazo[1,2-a]pyridin-7-amine hydrobromide], the IC50 with HFL1 (Homo sapiens, HFL1, 72 h) turned out to be 1 µM; in the assay on HCT-116 (Homo sapiens, HCT-116, 72 h), 1.7 µM; in the assay with CCD-18Co (Homo sapiens, CCD-18Co, 72 h), 2.7 µM; with PC14 (Homo sapiens, PC-14, 72 h), 1.4 µM; at SUV39H2 (enzyme assay), 0.00943 µM; in the assay on A549 (Homo sapiens, A549, 72 h), 2.2 µM.
Turning to `COc1cc(OC)c(-c2cn3ccc(N4CCC(O)C4)cc3n2)cc1Br` (stereo not drawn) [Example 7, 1-(2-(5-bromo-2,4-dimethoxyphenyl)imidazo[1,2-a]pyridin-7-yl)pyrrolidin-3-ol], the IC50 turned out to be 6.8 µM in the assay with HFL1 (Homo sapiens, HFL1, 72 h); 7 µM in the assay on HCT-116 (Homo sapiens, HCT-116, 72 h); 7.6 µM in the assay with CCD-18Co (Homo sapiens, CCD-18Co, 72 h); 6.1 µM in the assay with PC14 (Homo sapiens, PC-14, 72 h); 0.00544 µM on SUV39H2 (enzyme assay); 6.9 µM in the assay with A549 (Homo sapiens, A549, 72 h).
For `COc1cc(OC)c(-c2cn3ccc(N4CCCC4)nc3n2)cc1Cl` [Example 9, 2-(5-chloro-2,4-dimethoxyphenyl)-7-(pyrrolidin-1-yl)imidazo-[1,2-a]pyrimidine hydrobromide], the IC50 in the assay with HFL1 (setting [1]) was determined as 7.1 µM; in the assay on HCT-116 (setting [2]), 6.8 µM; with CCD-18Co (setting [3]) it was 8 µM; in the assay with PC14 (setting [4]) it was 6.3 µM; on SUV39H2 (enzyme assay), 0.00608 µM; in the assay on A549 (setting [5]), 8 µM.
For the compound `CNc1ccn2cc(-c3cc(Br)c(OC)cc3OC)nc2c1` [Example 11, 2-(5-bromo-2,4-dimethoxyphenyl)-N-methylimidazo[1,2-a]pyridin-7-amine hydrobromide], the IC50 was 1.7 µM in the assay with HFL1 (Homo sapiens, HFL1, 72 h); 1.1 µM in the assay on HCT-116 (Homo sapiens, HCT-116, 72 h); 2 µM in the assay with CCD-18Co (Homo sapiens, CCD-18Co, 72 h); 0.88 µM in the assay on PC14 (Homo sapiens, PC-14, 72 h); 0.0094 µM at SUV39H2 (enzyme assay); 1.4 µM with A549 (Homo sapiens, A549, 72 h).
For `COc1cc(OC)c(-c2cn3ccc(N4CCOCC4)cc3n2)cc1Cl` [Example 12, 4-(2-(5-chloro-2,4-dimethoxyphenyl)imidazo[1,2-a]pyridin-7-yl)morpholine hydrobromide], the IC50 is 6.8 µM with HFL1 (setting [1]); 5.1 µM in the assay with HCT-116 (setting [2]); 9 µM with CCD-18Co (setting [3]); 2.9 µM in the assay with PC14 (setting [4]); 0.012 µM on SUV39H2 (enzyme assay); 6.9 µM in the assay with A549 (setting [5]).
For `COc1cc(OC)c(-c2cn3ccc(N(C)C)cc3n2)cc1Cl` [Example 22, 2-(5-chloro-2,4-dimethoxyphenyl)-N,N-dimethylimidazo[1,2-a]pyridin-7-amine hydrobromide], the IC50 in the assay on HFL1 (setting [1]) turned out to be 1.7 µM; in the assay on HCT-116 (setting [2]), 3.3 µM; with CCD-18Co (setting [3]) it was 3.6 µM; with PC14 (setting [4]), 1.6 µM; on SUV39H2 (enzyme assay) it was 0.00515 µM; in the assay on A549 (setting [5]) it was 1.6 µM.
On to `COc1cc(OC)c(-c2cn3ccc(N4CCC(NC(=O)OC(C)(C)C)C4)cc3n2)cc1Cl` (stereo not drawn) [Example 23, tert-butyl{1-[2-(5-chloro-2,4-dimethoxyphenyl)imidazo[1,2-a]pyridin-7-yl]pyrrolidin-3-yl}carbamate], for which the IC50 with HFL1 (setting [1]) was 1.2 µM; with HCT-116 (setting [2]), 1.8 µM; in the assay on CCD-18Co (setting [3]), 2.8 µM; with PC14 (setting [4]), 1.7 µM; on SUV39H2 (enzyme assay), 0.00635 µM; in the assay on A549 (setting [5]), 2.4 µM.
With `CNC1CCN(c2ccn3cc(-c4cc(Cl)c(OC)cc4OC)nc3c2)CC1` [Example 24, 1-(2-(5-chloro-2,4-dimethoxyphenyl)imidazo[1,2-a]pyridin-7-yl)-N-methylpiperidin-4-amine hydrochloride], the IC50 in the assay with HFL1 (Homo sapiens, HFL1, 72 h) is 2.7 µM; in the assay with HCT-116 (Homo sapiens, HCT-116, 72 h), 4.4 µM; in the assay on CCD-18Co (Homo sapiens, CCD-18Co, 72 h), 11 µM; in the assay with PC14 (Homo sapiens, PC-14, 72 h) it was 5.7 µM; on SUV39H2 it was 0.00939 µM; in the assay with A549 (Homo sapiens, A549, 72 h) it was 5.5 µM.
On to `COc1cc(OC)c(-c2cn3ccc(N4CCC[C@@H](N)C4)cc3n2)cc1Cl` [Example 30, (R)-1-(5-chloro-2,4-dimethoxyphenyl)imidazo[1,2-a]pyridine-7-yl)piperidin-3-amine dihydrochloride], for which the IC50 with HFL1 (setting [1]) was 2 µM; with HCT-116 (setting [2]) it was 5.1 µM; in the assay on CCD-18Co (setting [3]), 3.9 µM; in the assay with PC14 (setting [4]), 2.3 µM; at SUV39H2 (enzyme assay) it was 0.009 µM; in the assay on A549 (setting [5]) it was 3.4 µM.
`COc1cc(OC)c(-c2cn3ccc(N4CCC(N)C4)cc3n2)cc1Cl` (stereo not drawn) [Example 33, 1-[2-(5-chloro-2,4-dimethoxyphenyl)imidazo[1,2-a]pyridin-7-yl]pyrrolidin-3-amine]: the IC50 was determined as 2.2 µM in the assay with HFL1 (setting [1]); 3.3 µM with HCT-116 (setting [2]); 3.2 µM in the assay on CCD-18Co (setting [3]); 1.7 µM in the assay with PC14 (setting [4]); 0.00704 µM on SUV39H2 (enzyme assay); 3.1 µM with A549 (setting [5]).
On to `COc1cc(OC)c(-c2cn3ccc(N4CCC(NC(C)=O)C4)cc3n2)cc1Cl` (stereo not drawn) [Example 37, N-(1-(2-(5-chloro-2,4-dimethoxyphenyl)imidazo[1,2-a]pyridin-7-yl)pyrrolidin-3-yl)acetamide], for which the IC50 in the assay on HFL1 (setting [1]) came out at 5.4 µM; with HCT-116 (setting [2]) it was 12 µM; in the assay on CCD-18Co (setting [3]), 11 µM; in the assay on PC14 (setting [4]) it was 8.2 µM; on SUV39H2 (enzyme assay), 0.00435 µM; in the assay on A549 (setting [5]) it was 14 µM.
For `COc1cc(OC)c(-c2cn3ccc(N4CCC(NS(C)(=O)=O)C4)cc3n2)cc1Cl` (stereo not drawn) [Example 40, N-(1-(2-(5-chloro-2,4-dimethoxyphenyl)imidazo[1,2-a]pyridin-7-yl)pyrrolidin-3-yl)methanesulfonamide], the IC50 with HFL1 (setting [1]) is 14 µM; in the assay with HCT-116 (setting [2]), 14 µM; in the assay on CCD-18Co (setting [3]) it was 15 µM; in the assay on PC14 (setting [4]) it was 6.7 µM; on SUV39H2 (enzyme assay), 0.00381 µM; in the assay with A549 (setting [5]) it was 17 µM.
For `COc1cc(OC)c(-c2cn3ccc(N4CCC(CO)CC4)cc3n2)cc1Cl` [Example 41, (1-(2-(5-chloro-2,4-dimethoxyphenyl)imidazo[1,2-a]pyridine-7-yl)piperidin-4-yl)methanol], the IC50 is 2.9 µM in the assay on HFL1 (setting [1]); 3.5 µM in the assay with HCT-116 (setting [2]); 3.1 µM with CCD-18Co (setting [3]); 2.8 µM with PC14 (setting [4]); 0.0054 µM at SUV39H2 (enzyme assay); 3.2 µM with A549 (setting [5]).
`COc1cc(OC)c(-c2cn3ccc(N4CCN(CCO)CC4)cc3n2)cc1Cl` [Example 43, 2-(4-(2-(5-chloro-2,4-dimethoxyphenyl)imidazo[1,2-a]pyridine-7-yl)piperazin-1-yl)ethanol dihydrochloride]: the IC50 in the assay with HFL1 (Homo sapiens, HFL1, 72 h) stood at 6.9 µM; in the assay on HCT-116 (Homo sapiens, HCT-116, 72 h), 14 µM; in the assay on CCD-18Co (Homo sapiens, CCD-18Co, 72 h), 11 µM; in the assay with PC14 (Homo sapiens, PC-14, 72 h), 9.8 µM; at SUV39H2, 0.00854 µM; in the assay on A549 (Homo sapiens, A549, 72 h), 14 µM.
